Biological target: T1, RPK (Ripped Pocket) (Drosophila melanogaster, UniProt Q7KTQ9)
T1 sequence (Q7KTQ9 1-562): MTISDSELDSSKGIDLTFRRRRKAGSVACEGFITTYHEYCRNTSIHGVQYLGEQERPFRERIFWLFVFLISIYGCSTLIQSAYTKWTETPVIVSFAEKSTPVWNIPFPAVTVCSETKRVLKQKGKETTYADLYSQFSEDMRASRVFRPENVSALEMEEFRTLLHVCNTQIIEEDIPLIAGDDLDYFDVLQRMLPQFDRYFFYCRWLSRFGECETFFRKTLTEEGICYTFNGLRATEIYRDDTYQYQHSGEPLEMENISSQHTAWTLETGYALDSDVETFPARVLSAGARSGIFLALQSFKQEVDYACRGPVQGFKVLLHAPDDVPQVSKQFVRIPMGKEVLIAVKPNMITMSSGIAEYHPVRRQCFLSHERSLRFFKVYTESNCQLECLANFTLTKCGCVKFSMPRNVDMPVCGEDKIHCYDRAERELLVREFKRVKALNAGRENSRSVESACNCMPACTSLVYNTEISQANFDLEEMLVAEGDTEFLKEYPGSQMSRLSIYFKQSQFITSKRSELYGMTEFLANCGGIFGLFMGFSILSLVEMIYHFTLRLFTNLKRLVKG
Experiment: two-electrode voltage clamp, Xenopus oocytes, dose-response of Na+ current block
Type: cell-based

`N=C(N)NC(=O)c1nc(Cl)c(N)nc1N` [amiloride] showed an IC50 of 9 ± 0.1 µM.

Source: article PMC2132602 (The Journal of Cell Biology, 1998)
